Entries after “also recorded” stand apart in the source; their conditions may differ.
Assays:
[1] = Safety and tolerability in people with type 2 diabetes; type: in vivo
[2] = Excretion/elimination of BI 1356 at therapeutic oral dose levels; type: in vivo

fraction excreted via the kidney [2]: < 7 % of the administered oral dose
Structure (SMILES): CC#CCn1c(N2CCC[C@@H](N)C2)nc2c1c(=O)n(Cc1nc(C)c3ccccc3n1)c(=O)n2C [BI 1356, 1-[(4-methyl-quinazolin-2-yl)methyl]-3-methyl-7-(2-butyn-1-yl)-8-(3-(R)-amino-piperidin-1-yl)-xanthine]
safety and tolerability [1]: placebo-like safety and tolerability
main route of excretion [2]: mainly excreted via the liver; also recorded: primarily excreted unchanged via the bile
